The values that follow come from article PMC9037111, “Structure-based design, synthesis, and biological evaluation of novel piperine–resveratrol hybrids as antiproliferative agents targeting SIRT-2” (RSC Advances, 2021).

Read-outs that look alike come from different tables or passages of the source.

What all share (assay): cells
What all share (set-up): species or system NCI-60 human tumour cell lines; NCI-60 one-dose screen at 10 uM, percent growth inhibition versus untreated control cells

For one assay, the system named is IGROV1. Particulars: Homo sapiens, IGROV-1, growth inhibition, one dose. The method, then:
(§1) The antiproliferative activity of the target compounds 5a–h was screened against a panel of 60 cancer cell lines according to NCI-guidelines at concentration of 10 μM. The results for each compound (Table 1) were recorded as the percent of growth inhibition of treated cells compared to untreated control cells. […] In addition, 5b recorded significant activity against leukemia cancer cell lines K-562 and MOLT-4, Non-small cell lung cancer cell lines NCI-H322M and NCI-H460, Colon cancer cell lines COLO 205, HCT-15 and HCT-116, CNS cancer cell lines SF-295 and SF-539, Melanoma cancer cell lines LOX IMVI and UACC-62, Ovarian cancer cell lines NCI/ADR-RES, OVCAR-3, and OVCAR-4, Renal cancer cell lines CAKI-1, ACHN, and UO-31, and Breast cancer MCF7 cell line with growth inhibition percentage between 80 to 95. […] The methodology of the NCI anticancer screening has been described in detail elsewhere (https://dtp.cancer.gov/).[52]

Another assay concerns KM12. The note with it: Homo sapiens, KM12, growth inhibition, one dose. The method, then: as §1
For a further assay, the system named is M14. The note with it: Homo sapiens, M14, growth inhibition, one dose. How it is done: as §1
The next assay deals with MDA-MB-435. Particulars: Homo sapiens, MDA-MB-435, growth inhibition, one dose. How it is done:
as §1

The test system of another assay is SR. Particulars: Homo sapiens, SR, growth inhibition, one dose. How it is done:
as §1

The subject of a further assay is UACC-62. Particulars: Homo sapiens, UACC-62, growth inhibition, one dose. The method, then:
as §1

The next assay has as its system BT-549. Particulars: Homo sapiens, BT-549, growth inhibition, one dose. How it is done: as §1
In a further assay the test system is OVCAR-4. The note with it: Homo sapiens, OVCAR-4, growth inhibition, one dose. The method, then: as §1
The subject of the next assay is RPMI-8226. The note with it: Homo sapiens, RPMI-8226, growth inhibition, one dose. How it is done: as §1
The next assay has as its system SW-620. The note with it: Homo sapiens, SW-620, growth inhibition, one dose. The method, then:
as §1

For a further assay, the system named is ACHN. Particulars: Homo sapiens, ACHN, growth inhibition, one dose. How it is done:
as §1

The subject of the next assay is HOP-92. The note with it: Homo sapiens, HOP-92, growth inhibition, one dose. How it is done:
as §1

In the next assay the test system is NCI-H460. Particulars: Homo sapiens, NCI-H460, growth inhibition, one dose. How it is done: as §1
The test system of another assay is NCI/ADR-RES. The note with it: Homo sapiens, NCI/ADR-RES, growth inhibition, one dose. How it is done: as §1
A further assay has as its system OVCAR-8. Particulars: Homo sapiens, OVCAR-8, growth inhibition, one dose. How it is done: as §1
The subject of the next assay is SK-MEL-2. The note with it: Homo sapiens, SK-MEL-2, growth inhibition, one dose. How it is done: as §1
The next assay has as its system U251. Particulars: Homo sapiens, U-251, growth inhibition, one dose. How it is done: as §1
In a further assay the test system is UACC-257. The note with it: Homo sapiens, UACC-257, growth inhibition, one dose. The method, then:
as §1

Setting [1] is: read-out: Growth% inhibition / 5d.
The mark [2] stands for this setting: read-out: Growth% inhibition / 5a.
Setting [3] is: read-out: Growth% inhibition / 5b.
Where [4] appears, read: read-out: Growth% inhibition / 5h.

As to `CN(C)c1ccc(C=NNC(=O)/C=C/C=C/c2ccc3c(c2)OCO3)cc1` (mixture of isomers) [5d, (2E,4E)-5-(Benzo[d][1,3]dioxol-5-yl)-N′-((E/Z)-4-(dimethylamino)-benzylidene)penta-2,4-dienehydrazide], the inhibition at 10 µM in the assay with IGROV1 (setting [1]) was determined as 10.1%; with KM12 (setting [1]), 14.2%; with M14 (setting [1]), 22.2%; in the assay on MDA-MB-435 (setting [1]), 70.1%; in the assay on SR (setting [1]) it was 62%; with UACC-62 (setting [1]) it was 16.1%.
Consider `O=C(/C=C/C=C/c1ccc2c(c1)OCO2)NN=Cc1ccc(O)cc1` [5a, (2E,4E)-5-(Benzo[d][1,3]dioxol-5-yl)-N′-((E,Z)-4-hydroxybenzylidene)penta-2,4-dienehydrazide], for which the inhibition at 10 µM turned out to be 21.5% with BT-549 (setting [2]); 24.7% with IGROV1 (setting [2]); 33.4% in the assay with KM12 (setting [2]); 17.1% with M14 (setting [2]); 73% with MDA-MB-435 (setting [2]); 12.7% in the assay with OVCAR-4 (setting [2]). The inhibition at 10 µM in the assay on RPMI-8226 (setting [2]) turned out to be 16.9%; in the assay on SR (setting [2]) it was 64%; with SW-620 (setting [2]), 19.8%; in the assay with UACC-62 (setting [2]), 28.5%.
Take `O=C(/C=C/C=C/c1ccc2c(c1)OCO2)N/N=C/c1ccc(O)cc1O` [5b, (2E,4E)-5-(Benzo[d][1,3]dioxol-5-yl)-N′-((E)-2,4-dihydroxybenzylidene)penta-2,4-dienehydrazide]: the inhibition at 10 µM in the assay on ACHN (setting [3]) turned out to be 85.6%; in the assay on BT-549 (setting [3]) it was 72.7%; in the assay on HOP-92 (setting [3]) it was 46.6%; in the assay on IGROV1 (setting [3]), 71.1%; in the assay with KM12 (setting [3]) it was 76.6%; with M14 (setting [3]), 69.7%. Besides, the inhibition at 10 µM in the assay on MDA-MB-435 (setting [3]) worked out at 67.4%; in the assay on NCI-H460 (setting [3]), 86%; in the assay on NCI/ADR-RES (setting [3]) it was 94.8%; in the assay on OVCAR-4 (setting [3]), 90.8%; in the assay on OVCAR-8 (setting [3]), 77.2%; in the assay on RPMI-8226 (setting [3]) it was 52.3%. In addition, the inhibition at 10 µM with SK-MEL-2 (setting [3]) was 47.2%; in the assay with SR (setting [3]) it was 78.7%; with SW-620 (setting [3]), 73.5%; in the assay with U251 (setting [3]), 68.7%; with UACC-257 (setting [3]), 71.5%; in the assay on UACC-62 (setting [3]), 85.7%.
As to `C/C(=N\NC(=O)/C=C/C=C/c1ccc2c(c1)OCO2)c1ccc(Br)cc1` [5h, (2E,4E)-5-(Benzo[d][1,3]dioxol-5-yl)-N′-((E)-1-(4-bromophenyl)ethylidene)penta-2,4-dienehydrazide], the inhibition at 10 µM is 24.1% with ACHN (setting [4]); 11.5% in the assay with HOP-92 (setting [4]); 29.7% in the assay on IGROV1 (setting [4]); 24.9% in the assay on KM12 (setting [4]); 26.7% with M14 (setting [4]); 13.6% in the assay with MDA-MB-435 (setting [4]). In addition, the inhibition at 10 µM stood at 60.4% in the assay with NCI-H460 (setting [4]); 33.9% in the assay with NCI/ADR-RES (setting [4]); 65.2% in the assay on OVCAR-4 (setting [4]); 24.7% in the assay with OVCAR-8 (setting [4]); 19.4% with RPMI-8226 (setting [4]); 11% in the assay on SK-MEL-2 (setting [4]). Besides, the inhibition at 10 µM was found to be 93.3% in the assay with SR (setting [4]); 25.4% with SW-620 (setting [4]); 16% with U251 (setting [4]); 12% in the assay with UACC-257 (setting [4]); 28.5% in the assay with UACC-62 (setting [4]).
